Assay results reported in article PMC6470533, “Structure–Activity Study, Characterization, and Mechanism of Action of an Antimicrobial Peptoid D2 and Its D- and L-Peptide Analogues” (Molecules, 2019).
≈ marks a conversion by molar mass, not a printed value. Non-standard residues stand in square brackets, D forms with d. Residues, ends and D or L forms follow the SMILES beside them. N(1-naphthylmethyl)Gly = O=C(O)CNCc1cccc2ccccc12; d1Nal = N[C@H](Cc1cccc2ccccc12)C(=O)O; N(4-MeBn)Gly = Cc1ccc(CNCC(=O)O)cc1; dNle = CCCC[C@@H](N)C(=O)O; NBuGly = CCCCNCC(=O)O; Nlys = NCCCCNCC(=O)O

How the values were obtained:
[1] = tested on: Proteus mirabilis, 25178; assay type: cell-based; conditions: 25178, 18 h
[2] = tested on: Enterococcus faecium, 30951; assay type: cell-based; conditions: 30951, 18 h
[3] = tested on: Klebsiella pneumoniae, 26233; assay type: cell-based; conditions: 26233, 18 h
[4] = tested on: Acinetobacter baumannii, 27065; assay type: cell-based; conditions: 27065, 18 h
[5] = tested on: Corynebacterium auriscanis, 31551; assay type: cell-based; conditions: 18 h
[6] = tested on: Enterococcus faecalis, 27404; assay type: cell-based; conditions: 27404, 18 h
[7] = tested on: Pseudomonas aeruginosa (ATCC 27853); assay type: cell-based; conditions: ATCC 27853, 18 h
Summary of the method: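 Peptides and peptidomimetics were tested by two-fold dilution in MHB II against bacteria seeded at 5 × 10^5 CFU/mL. Incubation lasted 18 h at 37 °C in ambient air, with visual MIC scoring; data come from two independent days in technical triplicate.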

[8] = tested on: clinical MRSP strain C22963; test: Time–kill kinetics; assay type: cell-based, Staphylococcus pseudintermedius; conditions: for log reduction in time–kill: after 6 h, MRSP C22963, 10^5 CFU/mL in MHB
Method: The time–kill experiments of D2 against the methicillin-resistant S. pseudintermedius strain C22963 were performed using an in-house protocol adopted and modified from Blondeau et al.: the bacterium was grown overnight on a blood agar plate. The next day, an inoculum was transferred to MHB and incubated for 2 h at 37 °C to reach exponential growth phase. […] Aliquots were removed at 1 h intervals up to 6h and spotted in triplicate on blood agar plates, and incubated overnight at 37 °C. Colonies were counted and CFU per mL was calculated.

[9] = tested on: other selected dog pathogens; test: MIC against other selected dog pathogens; assay type: cell-based; conditions: summary of Table 4, except for P. mirabilis
Description: We screened the antimicrobial activity of D2 and the analogue D2D against a number of canine pathogens (Table 4). These included Acinetobacter baumannii, Escherichia coli, Enterococcus faecalis, and Klebsiella pneumoniae isolated from wounds, Corynebacterium auriscanis associated with canine otitis externa, the nosocomial pathogen Enterococcus faecium, the endocartitis-causing Streptococcus canis, and Proteus mirabilis
To explore the antimicrobial activity of the library of peptides and peptidomimetics, they were tested against Acinetobacter baumannii, Corynebacterium auriscanis, Escherichia coli, Enterococcus faecalis, Enterococcus faecium, Klebsiella pneumonia, Proteus mirabilis, and Pseudomonas aeruginosa. Bacteria grown on agar plates for 18 h at 37 °C were diluted to ~1 × 10^8 CFU/mL in Mueller–Hinton broth (MHB). Two-fold serial dilutions of peptides and peptidomimetics in MHB II were inoculated with bacteria to achieve a final concentration of 5 × 10^5 CFU/mL in polypropylene 96 U-well microtiter plates (Almeco, Esbjerg, Denmark), followed by incubation at 37 °C in ambient air for 18 h. The MIC values were determined as the lowest concentration showing no visible bacterial growth. Experiments were performed twice (in technical triplicates) on two different days.

[10] = tested on: membrane proton motive force of E104 cells; test: DiSC3(5) fluorescence, membrane depolarization; assay type: cell-based, Staphylococcus pseudintermedius; conditions: 0.5× MIC, n = 2
Description: In this study, the DiSC3(5) probe was used to assess the effect of D2 and its structural analogues D2L, D2D, and D2R on cytoplasmic membrane depolarization. DiSC3(5) is a cationic carbocyanine dye, which accumulates on negatively charged membrane, translocates into lipid membrane with a distribution dependent on plasma and mitochondrial membrane potential. Altered emission profile of DiSC3(5) measured via fluorescence spectroscopy indicates membrane depolarization caused by proton motive force dissipation, ATP production and/or pore formation. The increment of DiSC3(5) fluorescence of labeled cells resulting from its leakage upon addition of antimicrobial agents is usually measured over time. The protonophore carbonyl cyanide metachlorophenyl hydrazone (CCCP) is used as positive control, which rapidly dissipates PMF increasing proton permeability, alters both membrane proton gradient and transmembrane electric potential and decreases cellular ATP content. Based on the MIC and growth analysis results, sub-lethal concentrations of D2 and selected analogues were chosen to perform DiSC3(5) fluorescence and macromolecule biosynthesis studies.
Freshly grown E104 cells with OD 0.2 at 600 nm were labeled with 1 µM 3,3-dipropylthiadicarbocyanine iodide [DiSC3(5)] (Sigma-Aldrich, Søborg, Denmark) in MHB. The fluorescence spectra of fluorophore-labeled cells were plotted using the LS-50B luminescence spectrometer (PerkinElmer, Waltham, MA, USA) at excitation/emission wavelengths 546 nm/573 nm using time drive application of FLWINLAB software. After reading initial stable emission spectra of DiSC3(5), labeled cells were exposed with D2 or analogues or nisin or protonophore CCCP by directly injecting the concentrated solution of agent to the cuvette, and the change of fluorescence over time was recorded until emission spectra reached to stability. The increment of DiSC3(5) fluorescence upon addition of antimicrobials or CCCP (FUafter-exposure – FUbefore-exposure) was calculated and plotted in addition to raw fluorescence spectra. Experiment was performed twice and average fluorescence change was plotted with standard deviation.

[11] = cited from earlier work
Description: We have previously described a promising antimicrobial peptoid, D2, which is active against MRSP and P. aeruginosa, resistant to plasma proteases and hepatic clearance in vitro, and is suitable for topical administration to treat superficial pyoderma. In the present study, we investigated the structural features responsible for antimicrobial activity of D2 by (a) performing Gly-scan to analyze the residues crucial for activity; (b) investigating the effects of single substitution in order to increase activity; (c) exploring the effect of the peptoid backbone by exchanging L- and D- amin ...

[12] = tested on: S. pseudintermedius isolates from canine infections; assay type: cell-based, Staphylococcus pseudintermedius; conditions: 50 isolates from canine infections

Compound | MIC Proteus mirabilis [1] [µg/mL] | MIC Enterococcus faecium [2] [µg/mL] | MIC Klebsiella pneumoniae [3] [µg/mL] | MIC Acinetobacter baumannii [4] [µg/mL] | MIC Corynebacterium auriscanis [5] [µg/mL] | MIC Enterococcus faecalis [6] [µg/mL] | MIC PA [7] [µg/mL] | time to killing to bacterial levels below the detection threshold ([8]; 1× MIC, MRSP C22963) [min] | MIC range against other selected dog pathogens [9] [µg/mL] | effect on PMF (membrane depolarization, DiSC3(5) fluorescence) [10] | resistance to hepatic clearance [11] | resistance to plasma proteases [11] | log reduction in time–kill ([8]; 1× MIC) [log] | log reduction in time–kill ([8]; 2× MIC) [log] | MIC range, panel of 50 S. pseudintermedius isolates [12] [µM]
CCCC[C@@H](NC(=O)[C@@H](CCCCN)NC(=O)[C@@H](Cc1cccc2ccccc12)NC(=O)[C@@H](CCCCN)NC(=O)[C@@H](Cc1ccccc1)NC(=O)[C@@H](Cc1cccc2ccccc12)NC(=O)[C@@H](CCCCN)NC(=O)[C@H](N)CCCCN)C(N)=O [D2D] (H-[dK][dK][d1Nal][dF][dK][d1Nal][dK][dNle]-NH2) | >64 | 4 (≈ 3.38 µM) | 8 (≈ 6.75 µM) | 16 (≈ 13.5 µM) | 2 (≈ 1.69 µM) | 8 (≈ 6.75 µM) | 4 (≈ 3.38 µM) | 30 | 2 to 16 | lowest activity on PMF |  |  |  |  | 
CCCCN(CC(N)=O)C(=O)CN(CCCCN)C(=O)CN(Cc1cccc2ccccc12)C(=O)CN(CCCCN)C(=O)CN(Cc1ccc(C)cc1)C(=O)CN(Cc1cccc2ccccc12)C(=O)CN(CCCCN)C(=O)CNCCCCN [D2] (H-[Nlys][Nlys][N(1-naphthylmethyl)Gly][N(4-MeBn)Gly][Nlys][N(1-naphthylmethyl)Gly][Nlys][NBuGly]-NH2) | >64 | 16 (≈ 13.3 µM) | >64 | >64 | 2 (≈ 1.67 µM) | >64 | 16 (≈ 13.3 µM) |  |  |  | resistant | resistant | 1.5 | 2.7 | 1.56 to 3.12
